The record followed here is PubChem BioAssay (NCI).

Assay in all cases: inhibition of tumour cell growth, NCI panel, 48 h
The test system of test [1] is COLO 205 colon.
The subject of test [2] is UO-31 renal.
Test [3] deals with OVCAR-3 ovarian.
Test [4] deals with OVCAR-5 ovarian.
Test [5] deals with RXF 393 renal.
In test [6] the test system is HOP-62 NSCLC.
Test [7] has as its system UACC-62 melanoma.
In test [8] the test system is A549 NSCLC.
Test [9] deals with CAKI-1 renal.
Test [10] deals with LOX IMVI melanoma.

Several values for one entry are separate records, joined by “and”; a condition that tells them apart may be missing. Equal entries are not always repeated.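 48-hour exposure; five concentrations; linearly interpolated endpoints. GI50 marks 50% less growth. At the TGI there is no net growth.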 Some results are limits rather than exact numbers.

For `Cc1ccc(C2=C(c3ccccc3)C(Br)(c3ccccc3)C(c3ccccc3)=C2c2ccc(C)cc2)cc1`, the TGI in [1], in test [2], in [3], in test [4], in [5] and in test [6] was over 100 µM each time. The TGI in test [7], in [8] and in test [9] was over 100 µM throughout.
Regarding `CC12CC3CC(C1)CC(N=[N+]=[N-])(C3)C2`, the TGI in test [1], in test [2], in [3], in [4], in test [6] and in test [7] was over 100 µM throughout. Further, the TGI in test [8], in [9] and in [10] was over 100 µM in each case.
In the case of `Cc1nn(-c2nc3ccccc3[nH]2)c2c1C(c1ccc3c(c1)OCO3)CC(=O)N2` (stereo unspecified), the GI50 in test [1] is 2.11 µM; in test [2], 2.73 µM; in [3], 2.38 µM; in test [4], 5.43 µM; in [5], 2.47 µM; in test [6], 2.38 µM. The GI50 in test [7] is 1.66 µM; in [8], 2.56 µM; in test [9], 2.55 µM. Moreover, the TGI is 4.15 µM in [1]; 8.14 µM in test [2]; 5.17 µM in test [3]; over 100 µM in test [4]; 6.26 µM in [5]; 5.21 µM in test [6]. The values for the TGI in [7], in [8] and in [9] were 3.13 µM, 7.73 µM and 7.04 µM, respectively.
For the compound `O=C(/C=C1/NC(=O)CS1)Nc1ccccc1`, the TGI in test [1], in [2], in [3], in test [4], in [5] and in [6] was over 100 µM each time. The TGI in test [7], in test [8] and in test [9] was over 100 µM throughout.
`COc1cc2cccc(NC(=O)c3cc(OC)c(OC)c(OC)c3Br)c2cc1OC`: the TGI in test [1] was 26.6 µM; in test [2] it was 24.2 µM; in [3], 47.5 µM; in test [4] it was 51.9 µM; in [6], 42.3 µM; in test [7] it was 26.1 µM. Also, the TGI in test [8] was determined as 46 µM; in test [9] it was 64.6 µM.
For the compound `Clc1nc(Cl)c(Cc2ccccc2)c(Cl)n1`, the TGI in [1] is 22.6 µM; in test [2], 33.2 µM; in [3], 9.16 µM; in [4] it was 38.2 µM; in test [5], 11.1 µM; in test [6], 20.4 µM. Further, the TGI was 16.9 µM in test [7], 27.5 µM in [8] and over 100 µM in test [10].
Regarding `CC(C)CCc1c(Cl)nc(Cl)nc1Cl`, the TGI in [2] was determined as 35.3 µM; in test [3], 24.3 µM; in [4], 55 µM; in [5], 11.5 µM; in test [6], 30.4 µM; in test [7], 24.7 µM. In addition, the TGI is 54.9 µM in test [8] and 11.8 µM in test [10].
Turning to `COc1ccc2c(c1)CC1c3c(cc4c(c3-2)OCO4)CCN1C` (stereo unspecified), the TGI in [1] was 30.9 µM; in test [2], 36.6 µM; in test [3], 88.4 µM; in test [4], over 100 µM; in test [6] it was 96.7 µM; in test [7], 47.6 µM. Also, the TGI in test [8] amounted to 61 µM; in test [9] it was 60.2 µM.
`COC(=O)[C@@H](C)C[C@H](Cc1ccccc1)NC(=O)c1csc([C@@H](C[C@H](C(C)C)N(C)C(=O)C2(NC(=O)[C@H]3CCCCN3C)CC2)OC(C)=O)n1`: the GI50 in test [1] is 0.00346 µM; in test [2] it was 1.3 µM; in test [3] it was 0.000567 µM and 0.00333 µM; in [5], 0.0216 µM; in [7], 0.00352 µM and 0.00333 µM; in [10], 0.00947 µM and 0.00333 µM. Besides, the TGI in [1] is 0.0644 µM; in test [2], over 33.3 µM; in test [4], over 33.3 µM; in test [6] it was over 33.3 µM; in test [7], over 33.3 µM; in test [8], over 33.3 µM. Besides, in test [10], the TGI is over 33.3 µM.
With `O=C1CCCC1NC(=O)C(F)(F)F` (stereo unspecified), the TGI in test [2], in test [3], in test [4], in [5], in test [6] and in [7] was over 100 µM in each case. For the same compound, the TGI in test [8] and in [9] was over 100 µM in each case.
Consider `Cn1c(=O)c(C(=O)NC(=O)OCc2ccccc2)cn(CCSCCOC(=O)NCCCCCCNC(=O)OCCSCCn2cc(C(=O)NC(=O)OCc3ccccc3)c(=O)n(C)c2=O)c1=O`, for which the TGI in test [1], in test [2], in [4], in [5], in test [6] and in test [7] was over 100 µM throughout. Besides, the TGI in test [8] and in test [10] was over 100 µM in each case.
As for `OCCNCCNc1c2ccccc2nc2oc3ccccc3c12`, the GI50 in test [1] was 3.51 µM; in test [2], 7.28 µM; in test [3], 12.5 µM; in test [4], 24.2 µM; in test [6], 6.62 µM; in test [7] it was 14.1 µM. In addition, the GI50 is 10.3 µM in [8], 11.9 µM in test [9] and 5.87 µM in test [10]. Besides, the TGI in test [1] is 16.4 µM; in [2], 34.4 µM; in test [3], 42.8 µM; in test [4], 71.6 µM; in test [6] it was 20.2 µM; in [7] it was 31.5 µM. Besides, the TGI came to 35.7 µM in [8], 56.4 µM in test [9] and 20.6 µM in test [10].
Turning to `O=C1C(=O)c2ccccc2C(O)=C1CCCCCCCCC1CCCCC1`, the TGI in test [1] came to 22.7 µM; in test [2], 20.6 µM; in [3], 26.5 µM; in [4], 32.2 µM; in test [6], 36.7 µM; in test [7] it was 18.4 µM. Also, the TGI in [8] amounted to 23.5 µM; in test [9], 57 µM; in test [10], 15.8 µM.
As to `Oc1c(N=Nc2ccccc2)c2ccccc2c2ccc3ccccc3c12`, the TGI in [1], in test [2], in [3], in test [4], in [5] and in test [6] was over 100 µM each time. For the same compound, the TGI in test [7], in [8] and in test [9] was over 100 µM in each case.
Turning to `COc1ccc2c(c1)OC(N)=C(C#N)C2c1ccc(F)cc1` (stereo unspecified), the GI50 in test [1] is 1.74 µM; in test [2] it was 5.64 µM; in [3], 0.829 µM; in test [4] it was 14.5 µM; in [5], 2.28 µM; in test [6], 0.986 µM. The GI50 is 0.571 µM in test [7], 4.94 µM in [8] and 1.98 µM in test [10]. The TGI was 10.1 µM in [1]; over 100 µM in test [2]; 14.2 µM in test [3]; over 100 µM in test [4]; 17.8 µM in [5]; over 100 µM in test [6]. Further, the TGI in [7], in test [8] and in [10] was over 100 µM in each case.
`Cc1ccc(N2C(=O)/C(=C/c3ccc(N(CCC#N)CCC#N)cc3C)N=C2c2cc([N+](=O)[O-])ccc2Cl)cc1`: the TGI in [1], in test [2], in test [3], in test [4], in [6] and in [7] was over 100 µM in each case. In addition, the TGI in [8] and in [9] was over 100 µM in each case.
Regarding `Cc1ccc(/C=C2\CCCC\C2=N\O)cc1`, the TGI in test [1] was over 100 µM; in test [2], 84 µM; in test [3], over 100 µM; in test [6], over 100 µM; in [7], over 100 µM; in [8], over 100 µM. The TGI in [9] and in test [10] was over 100 µM throughout.
For the compound `CSC1C(=O)c2ccccc2/C(=N/Nc2nc3ccccc3s2)C1C` (stereo unspecified), the GI50 in test [1] is 9.63 µM; in test [2] it was 6.02 µM; in test [3] it was 7.98 µM; in test [4], 14.5 µM; in test [6] it was 14.4 µM; in test [7], 8.67 µM. Moreover, the GI50 in test [8] was 16 µM; in test [9], 8.85 µM; in test [10], 5.62 µM. In addition, the TGI in test [1] was 21.1 µM; in [2], 13.8 µM; in [3] it was 17.6 µM; in test [4], 29.6 µM; in test [6] it was over 50 µM; in test [7] it was 16.5 µM. In addition, the TGI in test [8] stood at 44.4 µM; in [9], 20.1 µM; in [10] it was 11.6 µM.
With `CC1=Nn2c(nnc2-c2ccc(N)cc2)NC(C)(C)C1`, the TGI in test [1], in test [2], in [3], in test [4], in [6] and in [7] was over 100 µM in each case. Also, the TGI in test [8], in [9] and in [10] was over 100 µM throughout.
`C[C@@H]1C[C@@]2(O[C@@H]2C)C(=O)O[C@@H]2CCN3CC=C(COC(=O)[C@]1(C)O)[C@H]23`: the TGI in [1], in [2], in test [3], in [4], in [7] and in test [8] was over 100 µM each time. The TGI in test [9] and in test [10] was over 100 µM each time.
On to `COc1cc(-c2oc3c(OC)c(O)c(OC)c(O)c3c(=O)c2OC)ccc1O`, for which the TGI in [1] is over 100 µM; in test [2] it was 85.2 µM; in test [3], 67.8 µM; in test [4], over 100 µM; in [6], 61.4 µM; in test [7], over 100 µM. Also, the figures for the TGI in test [8], in test [9] and in test [10] were over 100 µM, 90.1 µM and over 100 µM, respectively.
On to `N#C[S-].[Au+].c1ccc(CN2[CH-]N(Cc3ccccc3)C(c3ccccc3)=C2c2ccccc2)cc1`, for which the GI50 was 0.351 µM in test [3], 1.21 µM in test [4], 0.546 µM in test [5] and 0.593 µM in test [8]. Besides, the TGI in test [3] was 1.3 µM; in test [4], 3.28 µM; in test [5] it was 1.86 µM; in test [8] it was 3.24 µM.
For the compound `N=C(N)c1ccc(-c2ccc(-c3cccs3)s2)nc1`, the GI50 in test [1] was 0.248 µM; in test [2] it was 0.545 µM; in [3] it was 0.234 µM; in [4] it was 1.26 µM; in test [5], 1.56 µM; in test [6] it was 1.94 µM. Further, the GI50 in [7] is 1.7 µM; in test [8], 0.023 µM; in test [9], 2.13 µM. Moreover, the TGI in test [1] is 1.09 µM; in [2] it was 3.92 µM; in test [3] it was 2.31 µM; in test [4] it was 5.68 µM; in [5] it was 3.54 µM; in test [6] it was 5.17 µM. Besides, the TGI in test [7] is 3.22 µM; in test [8], 1.28 µM; in test [9], 6.83 µM.
Turning to `COc1cc([N+](=O)[O-])c(OC)cc1-c1nc2sc(Cl)cn2c1/C=N/NC(=N)N/N=C/c1c(-c2cc(OC)c([N+](=O)[O-])cc2OC)nc2sc(Cl)cn12`, the GI50 was 1.89 µM in test [1], 1.71 µM in test [4] and 4.33 µM in test [9]. Further, the figures for the TGI in test [1], in test [4] and in [9] were 4.08 µM, 3.16 µM and 23.8 µM, respectively.
As to `COc1cc([C@@H]2OC(=O)C3C2C(=O)O[C@H]3c2cc(OC)c(OC)c(OC)c2)cc(OC)c1OC` (stereo partly specified), the TGI in test [1], in [2], in test [3], in [5], in test [6] and in [7] was over 100 µM throughout. For the same compound, the TGI in [8] and in test [10] was over 100 µM throughout.
